Paper PMC10734772 (Turkish Journal of Chemistry, 2021)

What was measured:
Type in all cases: cell-based
[1] = tested on: Jurkat; assay: MTT assay, Jurkat cells; settings: Homo sapiens, 24 h, read-out: Viability rate
Description: (§1) K562, Jurkat, Molt-4, and Nalm-6 cell lines were cultured in RPMI-1640 medium (ECM2001, Euroclone), Reh cell line was cultured in DMEM medium (LM-D1111-Biosera) Hek293T cell line was cultured in IMDM medium (AL070A - HiMedia) supplemented with 10% heat-inactivated fetal bovine serum (F7524-Merck & Co., USA,) penicillin and streptomycin (P4333-Sigma Aldrich). K562, Jurkat and Molt-4 cell lines were seeded as 4x10^5/ml, Reh and Nalm-6 cell lines were seeded 5x10^5/ml, Hek293T cell line was seed as 2x10^5/ml. All cells were incubated at 5% CO2 and 37 °C. All cell lines were kindly provided by Dr. M. Sayitoglu and Dr. Ö. Hatirnaz-Ng from Acibadem University.
(§2) MTT assay is a 3-day test. On the first day, cell count was performed in Bio Rad TC-20 device with the help of trypan blue, each cell line was prepared by diluting to the specified concentrations and seeded in a 96-well plate as 100μL to each well and incubated for 1 day.
(§3) Each compound was solved in DMSO, their stock solutions (33.3, 10, 5, 1 mM, and 300 μM) were prepared by diluting with the same solvent and they were stored under −20°C when they were not used.
(§4) On the second day, stock solutions were subsequently diluted to various concentrations (0.3–200 μM) with related medium prior to experiments. Specified concentrations of the compounds were seeded in a 96-well plate as 100μL to each well and incubated for 24 h.
(§5) After incubation (on the third day), to precipitate leukemia cells, the cell plate was centrifuged at 1500 rpm for 5 min. Then, 100 μL of supernatant was removed from each well carefully and 10 μl of MTT solution (5 mg/mL) was added to each well and incubated at 37 °C for 4 h. The 50 μl of supernatant was discarded from each well and 100 μl of DMSO was added to dissolve the formazan. Plates were shaken for 45 min to dissolve the dye. Then the optical density of each well was measured by using Thermo VarioSkan Flush Multimode Reader Quantum ST5-1100 at 570 nm wavelength.
(§6) Subsequently, viability rate of the cells at each concentration, as percentage, was determined by following formula (1):
(§7) Viability rate (%)=100-[(OD(control)-OD(sample))/OD(control)×100].OD=Optical Density
(§8) The IC50 values were calculated by using GraphPad Prism. All the data presented as the mean of 6 replicates. Results were analyzed and illustrated with Graph Pad Prism (version 5; GraphPad Software, San Diego, CA, USA). Statistical analysis was performed using dose-response inhibition, log(inhibitor) vs response-variable slope, least squares (ordinary) fit.
(§9) To evaluate in-vitro anti-cancer activity of the newly synthesized compounds, they were tested by using the MTT assay in the BCR-ABL positive leukemic cell line (K562), BCR-ABL negative leukemic cell lines (Nalm-6, Molt-4, Reh and Jurkat), and non-leukemic human embryonic kidney tissue (Hek293T) cell line. […] The viability rate of each concentration was calculated by the formula stated in material and methods, the viability rate results for each cell were presented in Table S2 and Figure S44.

[2] = tested on: K562; assay: MTT assay, K562 cells; settings: Homo sapiens, 24 h, MTT, read-out: Viability rate
[3] = MTT assay, Hek293T non-leukemic control cells; settings: human, read-out: Viability rate
Description: as §1, §2, §3, §4, §5, §6, §7, §8, §9

[4] = tested on: Molt-4; assay: MTT assay, Molt-4 cells; settings: Homo sapiens, MOLT-4, 24 h, read-out: Viability rate
Description: as §1, §2, §3, §4, §5, §6, §7, §8, §9

[5] = tested on: Nalm-6; assay: MTT assay, Nalm-6 cells; settings: Homo sapiens, 24 h, MTT, read-out: Viability rate
Description: After incubation (on the third day), to precipitate leukemia cells, the cell plate was centrifuged at 1500 rpm for 5 min. […] The 50 μl of supernatant was discarded from each well and 100 μl of DMSO was added to dissolve the formazan. Plates were shaken for 45 min to dissolve the dye. Then the optical density of each well was measured by using Thermo VarioSkan Flush Multimode Reader Quantum ST5-1100 at 570 nm wavelength.
The IC50 values were calculated by using GraphPad Prism. All the data presented as the mean of 6 replicates. […] Statistical analysis was performed using dose-response inhibition, log(inhibitor) vs response-variable slope, least squares (ordinary) fit.

[6] = tested on: Reh; assay: MTT assay, Reh cells; settings: Homo sapiens, 24 h, read-out: Viability rate
Description: as §1, §2, §3, §4, §5, §6, §7, §8, §9

## Cc1ccc(NC(=O)c2ccc(CN3CCN(C)CC3)cc2)cc1Nc1nccc(-c2cccnc2)n1 [imatinib, reference compound]
[1]; 0.3 μM
  viability at 0.3 µM: 68.4 ± 0.12%
[1]; 0.5 μM
  viability at 0.5 µM: 63.9 ± 0.03%
[1]; 1 μM
  viability at 1 µM: 61.5 ± 0.07%
[1]; 3 μM
  viability at 3 µM: 61.3 ± 0.05%
[1]; 5 μM
  viability at 5 µM: 60.7 ± 0.08%
[1]; 10 μM
  viability at 10 µM: 60.6 ± 0.14%
[1]; 15 μM
  viability at 15 µM: 57.9 ± 0.05%
[1]; 20 μM
  viability at 20 µM: 46.8 ± 0.05%
[1]; 30 μM
  viability at 30 µM: 34.5 ± 0.04%
[1]; 50 μM
  viability at 50 µM: 26.2 ± 0.05%
[1]; 70 μM
  viability at 70 µM: 17.8 ± 0.02%
[1]; 100 μM
  viability at 100 µM: 17.5 ± 0.01%
[1]; 150 μM
  viability at 150 µM: 17.3 ± 0.01%
[1]; 200 μM
  viability at 200 µM: 16.6%
[2]; K562, 0.3 μM
  viability at 0.3 µM: 98 ± 0.03%
[2]; K562, 0.5 μM
  viability at 0.5 µM: 97.4 ± 0.06%
[2]; K562, 1 μM
  viability at 1 µM: 95.4 ± 0.07%
[2]; K562, 3 μM
  viability at 3 µM: 95.3 ± 0.05%
[2]; K562, 5 μM
  viability at 5 µM: 95.4 ± 0.09%
[2]; K562, 10 μM
  viability at 10 µM: 94.8 ± 0.09%
[2]; K562, 15 μM
  viability at 15 µM: 88.5 ± 0.1%
[2]; K562, 20 μM
  viability at 20 µM: 87 ± 0.04%
[2]; K562, 30 μM
  viability at 30 µM: 72.8 ± 0.06%
[2]; K562, 50 μM
  viability at 50 µM: 60.8 ± 0.1%
[2]; K562, 70 μM
  viability at 70 µM: 60 ± 0.07%
[2]; K562, 100 μM
  viability at 100 µM: 51.3 ± 0.05%
[2]; K562, 150 μM
  viability at 150 µM: 35.1 ± 0.01%
[2]; K562, 200 μM
  viability at 200 µM: 29.7%
[3]; Hek293T cells (non-leukemic control cell line), 0.3 μM
  viability at 24 h, 0.3 µM: 83.4 ± 0.02%
[3]; Hek293T cells (non-leukemic control cell line), 0.5 μM
  viability at 24 h, 0.5 µM: 78.6 ± 0.04%
[3]; Hek293T cells (non-leukemic control cell line), 3 μM
  viability at 24 h, 3 µM: 73.1 ± 0.03%
[3]; Hek293T cells (non-leukemic control cell line), 5 μM
  viability at 24 h, 5 µM: 71.5 ± 0.02%
[3]; Hek293T cells (non-leukemic control cell line), 10 μM
  viability at 24 h, 10 µM: 67.9 ± 0.01%
[3]; Hek293T cells (non-leukemic control cell line), 15 μM
  viability at 24 h, 15 µM: 59.6 ± 0.01%
[3]; Hek293T cells (non-leukemic control cell line), 20 μM
  viability at 24 h, 20 µM: 55.7 ± 0.03%
[3]; Hek293T cells (non-leukemic control cell line), 30 μM
  viability at 24 h, 30 µM: 53.5 ± 0.01%
[3]; Hek293T cells (non-leukemic control cell line), 50 μM
  viability at 24 h, 50 µM: 48.5 ± 0.05%
[3]; Hek293T cells (non-leukemic control cell line), 70 μM
  viability at 24 h, 70 µM: 42.9 ± 0.03%
[3]; Hek293T cells (non-leukemic control cell line), 100 μM
  viability at 24 h, 100 µM: 42.7 ± 0.03%
[3]; Hek293T cells (non-leukemic control cell line), 150 μM
  viability at 24 h, 150 µM: 42.5 ± 0.02%
[3]; Hek293T cells (non-leukemic control cell line), 200 μM
  viability at 24 h, 200 µM: 42.1 ± 0.01%
[3]; Hek293T cells, 1 μM
  viability at 24 h, 1 µM: 77.7 ± 0.03%
[4]; Molt-4, 0.3 μM
  viability at 0.3 µM: 75.6 ± 0.18%
[4]; Molt-4, 0.5 μM
  viability at 0.5 µM: 74.9 ± 0.18%
[4]; Molt-4, 1 μM
  viability at 1 µM: 75.1 ± 0.19%
[4]; Molt-4, 3 μM
  viability at 3 µM: 73.8 ± 0.17%
[4]; Molt-4, 5 μM
  viability at 5 µM: 72.7 ± 0.25%
[4]; Molt-4, 10 μM
  viability at 10 µM: 70.7 ± 0.21%
[4]; Molt-4, 15 μM
  viability at 15 µM: 70.2 ± 0.1%
[4]; Molt-4, 20 μM
  viability at 20 µM: 63.4 ± 0.1%
[4]; Molt-4, 30 μM
  viability at 30 µM: 63.3 ± 0.06%
[4]; Molt-4, 50 μM
  viability at 50 µM: 55.5 ± 0.05%
[4]; Molt-4, 70 μM
  viability at 70 µM: 52.1 ± 0.1%
[4]; Molt-4, 100 μM
  viability at 100 µM: 41.2 ± 0.06%
[4]; Molt-4, 150 μM
  viability at 150 µM: 29.8 ± 0.04%
[4]; Molt-4, 200 μM
  viability at 200 µM: 20.3 ± 0.02%
[5]; Nalm-6, 0.3 μM
  viability at 0.3 µM: 91 ± 0.08%
[5]; Nalm-6, 0.5 μM
  viability at 0.5 µM: 90.7 ± 0.06%
[5]; Nalm-6, 1 μM
  viability at 1 µM: 90.1 ± 0.09%
[5]; Nalm-6, 3 μM
  viability at 3 µM: 84.7 ± 0.09%
[5]; Nalm-6, 5 μM
  viability at 5 µM: 84.5 ± 0.05%
[5]; Nalm-6, 10 μM
  viability at 10 µM: 72.9 ± 0.03%
[5]; Nalm-6, 15 μM
  viability at 15 µM: 57.1 ± 0.02%
[5]; Nalm-6, 20 μM
  viability at 20 µM: 52.7 ± 0.01%
[5]; Nalm-6, 30 μM
  viability at 30 µM: 50.7 ± 0.03%
[5]; Nalm-6, 50 μM
  viability at 50 µM: 39.7 ± 0.01%
[5]; Nalm-6, 70 μM
  viability at 70 µM: 32.5 ± 0.05%
[5]; Nalm-6, 100 μM
  viability at 100 µM: 32.2 ± 0.02%
[5]; Nalm-6, 150 μM
  viability at 150 µM: 32.5 ± 0.01%
[5]; Nalm-6, 200 μM
  viability at 200 µM: 29%
[6]; 0.3 μM
  viability at 0.3 µM: 97.6 ± 0.03%
[6]; 0.5 μM
  viability at 0.5 µM: 96.8 ± 0.03%
[6]; 1 μM
  viability at 1 µM: 96.4 ± 0.01%
[6]; 3 μM
  viability at 3 µM: 95.5 ± 0.02%
[6]; 5 μM
  viability at 5 µM: 94.5 ± 0.03%
[6]; 10 μM
  viability at 10 µM: 91.3 ± 0.05%
[6]; 15 μM
  viability at 15 µM: 82.4 ± 0.02%
[6]; 20 μM
  viability at 20 µM: 78.6 ± 0.02%
[6]; 30 μM
  viability at 30 µM: 70.9 ± 0.03%
[6]; 50 μM
  viability at 50 µM: 63.5 ± 0.04%
[6]; 70 μM
  viability at 70 µM: 62.9 ± 0.03%
[6]; 100 μM
  viability at 100 µM: 61.2 ± 0.01%
[6]; 150 μM
  viability at 150 µM: 60.3 ± 0.03%
[6]; 200 μM
  viability at 200 µM: 57 ± 0.02%
